This data set is described as follows: Kinetic solubility assay. Type of data set: physicochemical. Conditions: kinetic solubility, 50 mM PB (pH 7.4), shaken 24 hours at RT. On the procedure: 10 μL of 10 mM in DMSO of test article and control compounds was added into lower chambers of whatman miniuniprep vials, respectively. 490 μL of 50 mM PB (pH 7.4) was then added into lower chambers of the whatman miniuniprep vials, respectively. […] Miniuniprep vials were shaken for 24 hours at RT at the speed of 800 rpm, centrifuged 20 minutes (eg. 4000 rpm) and the filtrates were analyzed by UPLC-UV/HPLC-UV system to calculate the concentration with standard curve.
Filter Membrane: Miniuniprep (PTFE Filter Media with Polypropylene Housing) Cat. No. UN203NPUORG, GE Halthcare Whatman.

Take `Cc1ccc(-c2noc(C3COC3)n2)cc1NC(=O)c1cnc2cc(COCCO)ccn12` [I-50]: the “Solubility (μM)” value is “*** (a solubility greater than 2 μM and less than or equal to 10 μM)”.

Consider `COc1ccn2c(C(=O)Nc3cccc(-c4noc([C@H]5C[C@@H]5F)n4)c3F)cnc2c1` [I-53], for which the “Solubility (μM)” value was “**** (a solubility less than or equal to 2 μM)”.

Consider `O=C(Nc1cc(-c2noc(C3CC3F)n2)ccc1Cl)c1cnc2cc(COCCO)ccn12` (stereo not drawn) [I-56], for which the “Solubility (μM)” value is “**** (a solubility less than or equal to 2 μM)”.

As for `Cc1ccc(-c2noc([C@H]3C[C@@H]3F)n2)cc1NC(=O)c1cnc2ccc(S(C)(=O)=O)cn12` [I-18], the “Solubility (μM)” value is recorded as “**** (a solubility less than or equal to 2 μM)”.

For `Cc1ccc(-c2noc([C@H]3C[C@@H]3F)n2)cc1NC(=O)c1cnc2ccc(CS(C)(=O)=O)cn12` [I-12], the “Solubility (μM)” value is “**** (a solubility less than or equal to 2 μM)”.

Turning to `COc1cc2ncc(C(=O)Nc3cc(-c4noc([C@H]5C[C@@H]5F)n4)ccc3C)n2cc1C(F)(F)F` [I-41], the “Solubility (μM)” value was “**** (a solubility less than or equal to 2 μM)”.

On to `Cc1ccc(-c2noc(C3COC3)n2)cc1NC(=O)c1cnc2cc(C(F)F)ccn12` [I-52], for which the “Solubility (μM)” value is listed as “**** (a solubility less than or equal to 2 μM)”.

For `Cc1ccc(-c2noc([C@H]3C[C@@H]3F)n2)cc1NC(=O)c1cnc2ccc(CNS(=O)(=O)C3CC3)cn12` [I-5], the “Solubility (μM)” value was “**** (a solubility less than or equal to 2 μM)”.

On to `Cc1ccc(-c2noc([C@H]3C[C@@H]3F)n2)cc1NC(=O)c1cnc2cc(CNC(=O)CO)ccn12` [I-7], for which the “Solubility (μM)” value is “**** (a solubility less than or equal to 2 μM)”.

On to `Cc1ccc(-c2noc(CC(O)C(F)(F)F)n2)cc1NC(=O)c1cnc2ccccn12` (single isomer, unassigned) [I-67], for which the “Solubility (μM)” value is recorded as “**** (a solubility less than or equal to 2 μM)”.

Consider `Cc1ccc(-c2noc(C3CC3F)n2)cc1NC(=O)c1cnc2cc(COC(C)CO)ccn12` (stereo not drawn) [I-59], for which the “Solubility (μM)” value is listed as “* (a solubility greater than 50 μM)”.

On to `CC(=O)NCc1ccn2c(C(=O)Nc3cc(-c4noc([C@H]5C[C@@H]5F)n4)ccc3C)cnc2c1` [I-32], for which the “Solubility (μM)” value is “**** (a solubility less than or equal to 2 μM)”.

As to `Cc1ccc(-c2noc(C3CC3F)n2)cc1NC(=O)c1cnn2cccc(C(F)F)c12` (stereo not drawn) [I-60], the “Solubility (μM)” value was “**** (a solubility less than or equal to 2 μM)”.

For `Cc1ccc(-c2noc(CC(O)C(F)F)n2)cc1NC(=O)c1cnc2cc(OC(F)(F)F)ccn12` (single isomer, unassigned) [I-13], the “Solubility (μM)” value is “**** (a solubility less than or equal to 2 μM)”.

`COc1ccn2c(C(=O)Nc3cc(-c4noc(C5COC5)n4)ccc3Cl)cnc2c1` [I-47]: the “Solubility (μM)” value is recorded as “**** (a solubility less than or equal to 2 μM)”.

On to `Cc1ccc(-c2noc(CC(O)C(F)(F)F)n2)cc1NC(=O)c1cnc2ccccn12` (single isomer, unassigned) [I-68], for which the “Solubility (μM)” value is “**** (a solubility less than or equal to 2 μM)”.

With `Cc1ccc(-c2noc(C3COC3)n2)cc1NC(=O)c1cnc2cc(CF)ccn12` [I-48], the “Solubility (μM)” value is “**** (a solubility less than or equal to 2 μM)”.

On to `O=C(Nc1cc(-c2noc(C3COC3)n2)ccc1Cl)c1cnc2cc(C(F)F)ccn12` [I-38], for which the “Solubility (μM)” value is “**** (a solubility less than or equal to 2 μM)”.

As for `COc1ccn2c(C(=O)Nc3cccc(-c4noc(CC5CC5(F)F)n4)c3F)cnc2c1` (single isomer, unassigned) [I-54], the “Solubility (μM)” value is given as “**** (a solubility less than or equal to 2 μM)”.

On to `COc1cc2ncc(C(=O)Nc3cc(-c4noc([C@H]5C[C@@H]5F)n4)ccc3C)n2cc1C(F)F` [I-29], for which the “Solubility (μM)” value is recorded as “**** (a solubility less than or equal to 2 μM)”.

Consider `Cc1ccc(-c2noc([C@H]3C[C@@H]3F)n2)cc1NC(=O)c1cnc2cc(CC#N)ccn12` [I-16], for which the “Solubility (μM)” value is recorded as “**** (a solubility less than or equal to 2 μM)”.

As to `Cc1ccc(-c2noc([C@H]3C[C@@H]3F)n2)cc1NC(=O)c1cnc2cc(CNS(C)(=O)=O)ccn12` [I-17], the “Solubility (μM)” value is listed as “**** (a solubility less than or equal to 2 μM)”.

In the case of `Cc1ccc(-c2noc(C3CC3(F)F)n2)cc1NC(=O)c1cnc2cc(COCCO)ccn12` (stereo not drawn) [I-58], the “Solubility (μM)” value was “** (a solubility greater than 10 μM and less than or equal to 50 μM)”.

Regarding `O=C(Nc1cccc(-c2noc(C3CC3F)n2)c1F)c1cnc2cc(COCCO)ccn12` (stereo not drawn) [I-57], the “Solubility (μM)” value is “**** (a solubility less than or equal to 2 μM)”.

Consider `COc1cc2ncc(C(=O)Nc3cc(-c4noc([C@H]5C[C@@H]5F)n4)ccc3C)n2cc1F` [I-27], for which the “Solubility (μM)” value is on record as “**** (a solubility less than or equal to 2 μM)”.

As to `Cc1ccc(-c2noc([C@H]3C[C@@H]3F)n2)cc1NC(=O)c1cnc2cc(C(=O)N3CCCC3)ccn12` [I-3], the “Solubility (μM)” value is “*** (a solubility greater than 2 μM and less than or equal to 10 μM)”.

On to `COc1ccn2c(C(=O)Nc3cc(-c4noc([C@H]5C[C@@H]5F)n4)ccc3C)cnc2c1F` [I-34], for which the “Solubility (μM)” value is reported as “**** (a solubility less than or equal to 2 μM)”.

With `COc1ccc2c(C(=O)Nc3cc(-c4noc([C@H]5C[C@@H]5F)n4)ccc3C)cnn2c1` [I-21], the “Solubility (μM)” value is reported as “**** (a solubility less than or equal to 2 μM)”.

Regarding `Cc1ccc(-c2noc(C3CC3F)n2)cc1NC(=O)c1cnc2cc(COC(C)(C)CO)ccn12` (stereo not drawn) [I-64], the “Solubility (μM)” value was “** (a solubility greater than 10 μM and less than or equal to 50 μM)”.

For the molecule `O=C(Nc1cc(-c2noc(CC(O)C(F)F)n2)ccc1Cl)c1cnc2ccccn12` (single isomer, unassigned) [I-61], the “Solubility (μM)” value is reported as “**** (a solubility less than or equal to 2 μM)”.

For the molecule `Cc1ccc(-c2noc(C3COC3)n2)cc1NC(=O)c1cnc2cc(C(C)(F)F)ccn12` [I-43], the “Solubility (μM)” value is recorded as “**** (a solubility less than or equal to 2 μM)”.

Consider `Cc1ccc(-c2noc(CC(O)C(F)F)n2)cc1NC(=O)c1cnc2cc(C(F)F)ccn12` (single isomer, unassigned) [I-70], for which the “Solubility (μM)” value is “**** (a solubility less than or equal to 2 μM)”.

Regarding `Cc1ccc(-c2noc(C3COC3)n2)cc1NC(=O)c1cnn2cc(C(F)F)ccc12` [I-20], the “Solubility (μM)” value is on record as “**** (a solubility less than or equal to 2 μM)”.

Consider `Cc1ccc(-c2noc([C@H]3C[C@@H]3F)n2)cc1NC(=O)c1cnc2cc(C(C)(F)F)ccn12` [I-44], for which the “Solubility (μM)” value is reported as “**** (a solubility less than or equal to 2 μM)”.

As to `COc1ccc2ncc(C(=O)Nc3cc(-c4noc(CC(O)C(F)F)n4)ccc3C)n2c1` (single isomer, unassigned) [I-65], the “Solubility (μM)” value is “**** (a solubility less than or equal to 2 μM)”.

In the case of `COC(=O)NCc1ccn2c(C(=O)Nc3cc(-c4noc([C@H]5C[C@@H]5F)n4)ccc3C)cnc2c1` [I-30], the “Solubility (μM)” value is “**** (a solubility less than or equal to 2 μM)”.

As to `Cc1ccc(-c2noc([C@H]3C[C@@H]3F)n2)cc1NC(=O)c1cnc2ccc(CC#N)cn12` [I-15], the “Solubility (μM)” value was “**** (a solubility less than or equal to 2 μM)”.

In the case of `COc1cc2ncc(C(=O)Nc3cc(-c4noc([C@H]5C[C@@H]5F)n4)ccc3C)n2cc1C` [I-42], the “Solubility (μM)” value was “**** (a solubility less than or equal to 2 μM)”.

As to `O=C(Nc1cc(-c2noc(CC(O)C(F)F)n2)ccc1Cl)c1cnc2ccccn12` (single isomer, unassigned) [I-62], the “Solubility (μM)” value is on record as “**** (a solubility less than or equal to 2 μM)”.

The values are drawn from patent US20240254119A1 (THIRD HARMONIC BIO, INC., priority 2022, published 2024).
